Paper PMC6202471 (CPT: Pharmacometrics & Systems Pharmacology, 2018)
Where two headings read alike, the source gives them in different places.

How the values were obtained:
CYP2B6 [1] = molecular target: T1, CYP2B6 (Homo sapiens, UniProt P20813); conditions: after administration of ticlopidine
T1 sequence (P20813 1-491): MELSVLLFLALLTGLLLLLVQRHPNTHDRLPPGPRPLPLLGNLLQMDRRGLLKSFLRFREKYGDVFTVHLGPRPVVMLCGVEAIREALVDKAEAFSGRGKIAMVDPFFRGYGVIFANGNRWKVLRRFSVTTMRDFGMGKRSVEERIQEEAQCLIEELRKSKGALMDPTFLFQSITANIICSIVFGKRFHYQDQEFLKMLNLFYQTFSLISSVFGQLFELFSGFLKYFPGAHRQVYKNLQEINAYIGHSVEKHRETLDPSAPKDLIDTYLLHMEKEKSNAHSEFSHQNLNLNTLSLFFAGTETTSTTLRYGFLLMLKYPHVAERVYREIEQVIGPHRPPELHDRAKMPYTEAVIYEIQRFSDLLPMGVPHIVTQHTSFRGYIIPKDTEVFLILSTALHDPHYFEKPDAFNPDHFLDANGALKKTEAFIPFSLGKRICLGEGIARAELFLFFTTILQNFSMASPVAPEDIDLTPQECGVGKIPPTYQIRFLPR

[2] = cited from earlier work; for AUC, NCA results: trapezoidal rule with extrapolation to infinity
[3] = cited from earlier work; for f u,GW, unbound drug fraction in the gut wall: fixed to 1
[4] = cited from earlier work; for K a,TIC, absorption rate constant, fixed to a published value: FIXED in the model
[5] = Semimechanistic population pharmacokinetic model; conditions: for CLINT,H, intrinsic hepatic clearance, SIR median: SIR 20,000 samples, 2,000 resamples; for CLINT,H, intrinsic hepatic clearance, SIR median / CLINT,GW, intrinsic gut wall clearance, SIR median / Q PER1, central to first peripheral compartment clearance, SIR median / V C, volume of central compartment, SIR median / V PER1, volume of first peripheral compartment, SIR median / V C, volume of central compartment, NONMEM mean θ estimate / V PER1, volume of first peripheral compartment, NONMEM mean θ estimate: norketamine values apparent; for CLINT,GW, intrinsic gut wall clearance, NONMEM mean θ estimate / CLINT,H, intrinsic hepatic clearance, NONMEM mean θ estimate: norketamine values apparent (F met set to 1)
CYP2B6 [6] = molecular target: T1, CYP2B6; conditions: in vitro study; cited from earlier work
[7] = S-ketamine p.o. ticlopidine-phase

Row | Compound | C max, NCA results ([2]; S-ketamine i.v. placebo-phase) | C max, NCA results ([2]; S-ketamine p.o. placebo-phase) | AUC, NCA results ([2]; S-ketamine p.o. placebo-phase) | C max, NCA results [2, 7] | AUC, NCA results [2, 7] | f u,GW, unbound drug fraction in the gut wall [3] | CLINT,H, intrinsic hepatic clearance, SIR median [5] | CLINT,GW, intrinsic gut wall clearance, SIR median ([5]; SIR) | Q PER1, central to first peripheral compartment clearance, SIR median ([5]; SIR) | V C, volume of central compartment, SIR median ([5]; SIR) | V PER1, volume of first peripheral compartment, SIR median ([5]; SIR) | Interindividual variability on CLINT,H, NONMEM estimate ([5]; exponential IIV model) | Interindividual variability on CLINT,H, SIR median ([5]; exponential IIV model, SIR) | V C, volume of central compartment, NONMEM mean θ estimate ([5]; final model) | V PER1, volume of first peripheral compartment, NONMEM mean θ estimate ([5]; final model) | CLINT,GW, intrinsic gut wall clearance, NONMEM mean θ estimate ([5]; final model) | CLINT,H, intrinsic hepatic clearance, NONMEM mean θ estimate ([5]; final model) | other results
1 | CN[C@]1(c2ccccc2Cl)CCCCC1=O [S‐ketamine] | 32 ng/mL | 9.9 ng/mL | 21 ng·h/mL | 17 ng/mL | 54 ng·h/mL | 1 | 304 L/h | 1.22 L/h | 288 L/h | 14.4 L | 102 L | 0.25 | 0.26 | 14.4 L | 102 L | 1.19 L/h | 301 L/h | Intrinsic hepatic clearance of S-ketamine (CYP2B6 [1]): 113 L/h; Total hepatic clearance of S-ketamine (CYP2B6 [1]; well-stirred model): 60 L/h; f u,SK, unbound drug fraction in the blood ([3]; S-ketamine): 0.70; Share of S-ketamine metabolized to norketamine in vivo [4]: ~ 80%; F met, true value for S-ketamine to norketamine metabolism ([4]; humans, set to 1 in the model): b Should be considered as apparent rather than absolute values, as F met was set to 1 but true value of F met = 0.80 in humans for S‐ketamine to norketamine metabolism.; K a, absorption rate constant, SIR median ([5]; SIR): 1.78 h⁻¹; Q PER2, central to second peripheral compartment clearance, SIR median ([5]; SIR): 22.3 L/h; V PER2, volume of second peripheral compartment, SIR median ([5]; SIR): 180 L; Interindividual variability on CLINT,GW, NONMEM estimate ([5]; exponential IIV model): 2.1; Interindividual variability on K a, NONMEM estimate ([5]; exponential IIV model): 0.42; Interindividual variability on V PER1, NONMEM estimate ([5]; exponential IIV model): 0.045; Interindividual variability on CLINT,GW, SIR median ([5]; exponential IIV model, SIR): 2.0; Interindividual variability on K a, SIR median ([5]; exponential IIV model, SIR): 0.44; Interindividual variability on V PER1, SIR median ([5]; exponential IIV model, SIR): 0.046; K a, absorption rate constant, NONMEM mean θ estimate ([5]; final model): 1.76 h⁻¹; V PER2, volume of second peripheral compartment, NONMEM mean θ estimate ([5]; final model): 180 L; Total hepatic clearance of S-ketamine ([5]; placebo phase, well-stirred model): 71 L/h
2 | Clc1ccccc1CN1CCc2sccc2C1 [Ticlopidine, ticlopidine] | – | – | – | – | – | 1 | – | – | – | 50.8 L | 208.7 L | – | – | 50.3 L | 191 L | – | – | K a,TIC, absorption rate constant, fixed to a published value [4]: 3.3 (FIXED) /h; K a,TIC, absorption rate constant, fixed to a published value ([4]; listed as ticlopidine): 3.3 h⁻¹; Ticlopidine half-life after multiple dosing [4]: increased
3 | CCC(C)n1ncn(-c2ccc(N3CCN(c4ccc(OCC5COC(Cn6cncn6)(c6ccc(Cl)cc6Cl)O5)cc4)CC3)cc2)c1=O (stereo not drawn) [Itraconazole] | – | – | – | – | – | – | – | – | – | – | – | – | – | – | – | – | – | Effect on plasma concentrations of orally administered S-ketamine ([2]; CYP3A inhibitor pretreatment, healthy volunteers): no significant effect
4 | CNC1(c2ccccc2Cl)CCCCC1=O (stereo not drawn) [ketamine] | – | – | – | – | – | – | – | – | – | – | – | – | – | – | – | – | – | Bioavailability after oral administration ([4]; extensive first-pass metabolism): ~ 17%; Fraction of ketamine metabolized by hepatic CYP2B6 (CYP2B6 [6]): around 60%
5 | NC1(c2ccccc2Cl)CCCCC1=O (stereo not drawn) [Norketamine, norketamine] | 14 ng/mL | 61 ng/mL | 292 ng·h/mL | 46 ng/mL | 310 ng·h/mL | 1 | 73.4 L/h | 46.5 L/h | 20.1 L/h | 88 L | 88.8 L | 0.10 | 0.10 | 88.4 L | 88.9 L | 44.4 L/h | 73.5 L/h | f u,NK, unbound drug fraction in the blood ([3]; norketamine): 0.50
